The target of one data set is Cholinesterase (Equus caballus, UniProt P81908). Description: Inhibition of equine serum BuChE using butyrylthiocholine as substrate preincubated for 5 mins followed by substrate addition measured after 20 mins by Ellman's method. (In Ellman's method for cholinesterases, released thiocholine reacts with DTNB.)
In the next data set the target is Acetylcholinesterase (Electrophorus electricus, UniProt O42275). Description: Inhibition of electric eel AChE using acetylthiocholine as substrate preincubated for 5 mins followed by substrate addition measured after 20 mins by Ellman's method.
A short description of data set [1]: Antioxidant activity assessed as reduction of colourless Fe3+-TPTZ complex to coloured Fe2+-TPTZ complex measured after 5 mins by FRAP assay. In kind it is functional.
For data set [2], the target named is T1, Amine oxidase [flavin-containing] B (Rattus norvegicus, UniProt P19643).
T1 sequence (P19643 whole entry): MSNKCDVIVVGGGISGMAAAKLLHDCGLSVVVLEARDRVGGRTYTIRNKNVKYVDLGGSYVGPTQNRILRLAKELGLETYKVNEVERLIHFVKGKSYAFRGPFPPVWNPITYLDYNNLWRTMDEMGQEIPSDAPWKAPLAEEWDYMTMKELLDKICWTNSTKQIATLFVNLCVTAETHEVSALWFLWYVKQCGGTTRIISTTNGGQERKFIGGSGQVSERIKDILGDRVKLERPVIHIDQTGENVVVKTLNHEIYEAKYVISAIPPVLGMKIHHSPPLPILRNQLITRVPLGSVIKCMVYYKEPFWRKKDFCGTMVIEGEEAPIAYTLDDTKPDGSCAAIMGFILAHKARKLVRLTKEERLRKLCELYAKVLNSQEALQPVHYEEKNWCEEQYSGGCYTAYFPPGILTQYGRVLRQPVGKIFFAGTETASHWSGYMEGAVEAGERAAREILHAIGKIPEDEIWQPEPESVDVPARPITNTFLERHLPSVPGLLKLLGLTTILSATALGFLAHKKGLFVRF
The data set is described as follows: Inhibition of MAO-B in Wistar rat liver using 4-trifluoromethyl benzylamine as substrate preincubated for 20 mins followed by substrate addition measured after 90 mins by microplate reader assay. In kind it is tissue-based.

In data set [3] the target is T1, Amine oxidase [flavin-containing] B. Description: Non-competitive inhibition of MAO-B extracted from Wistar rat liver at 5 to 500 uM using varying level of 4-trifluoromethyl benzylamine as substrate preincubated for 20 mins followed by substrate addition measured after 90 mins by microplate reader assay. Conditions: 1.5 h.
The target in data set [4] is Acetylcholinesterase (Electrophorus electricus) (UniProt O42275). Description: Mixed-type inhibition of electric eel AChE at 0.5 to 50 nM using varying level of acetylthiocholine as substrate preincubated for 5 mins followed by substrate addition measured after 20 mins by Ellman's method.

The source made the active and inactive calls. The calls are words filed in the database; no cut-off is given here. A value given as a limit tells only on which side of the number the result lay.

Data on 21 compounds can be found in ChEMBL document CHEMBL4610034, “Synthesis and biological evaluation of 4-arylcoumarins as potential anti-Alzheimer's disease agents” (Bioorg Med Chem Lett, 2020).

For orientation: IC50 means the concentration that gives 50% inhibition. High values mean a need for much substance, low ones inhibition by little substance.

Sequence of Cholinesterase (P81908 whole entry): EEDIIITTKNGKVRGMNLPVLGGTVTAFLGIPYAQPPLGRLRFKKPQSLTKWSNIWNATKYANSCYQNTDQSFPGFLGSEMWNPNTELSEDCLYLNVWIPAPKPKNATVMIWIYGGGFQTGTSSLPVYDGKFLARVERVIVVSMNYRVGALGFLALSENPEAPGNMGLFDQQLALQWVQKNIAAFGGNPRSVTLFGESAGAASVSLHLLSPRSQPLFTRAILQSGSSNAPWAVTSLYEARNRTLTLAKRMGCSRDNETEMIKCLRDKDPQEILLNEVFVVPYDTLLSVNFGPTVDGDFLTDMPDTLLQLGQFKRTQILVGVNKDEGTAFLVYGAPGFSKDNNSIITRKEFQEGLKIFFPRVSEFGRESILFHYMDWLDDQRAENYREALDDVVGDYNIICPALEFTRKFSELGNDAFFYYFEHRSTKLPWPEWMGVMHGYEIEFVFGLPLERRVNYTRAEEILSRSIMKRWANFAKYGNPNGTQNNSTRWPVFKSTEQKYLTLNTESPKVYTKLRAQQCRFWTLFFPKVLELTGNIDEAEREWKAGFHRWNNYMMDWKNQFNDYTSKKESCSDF
Sequence of Acetylcholinesterase (O42275 whole entry): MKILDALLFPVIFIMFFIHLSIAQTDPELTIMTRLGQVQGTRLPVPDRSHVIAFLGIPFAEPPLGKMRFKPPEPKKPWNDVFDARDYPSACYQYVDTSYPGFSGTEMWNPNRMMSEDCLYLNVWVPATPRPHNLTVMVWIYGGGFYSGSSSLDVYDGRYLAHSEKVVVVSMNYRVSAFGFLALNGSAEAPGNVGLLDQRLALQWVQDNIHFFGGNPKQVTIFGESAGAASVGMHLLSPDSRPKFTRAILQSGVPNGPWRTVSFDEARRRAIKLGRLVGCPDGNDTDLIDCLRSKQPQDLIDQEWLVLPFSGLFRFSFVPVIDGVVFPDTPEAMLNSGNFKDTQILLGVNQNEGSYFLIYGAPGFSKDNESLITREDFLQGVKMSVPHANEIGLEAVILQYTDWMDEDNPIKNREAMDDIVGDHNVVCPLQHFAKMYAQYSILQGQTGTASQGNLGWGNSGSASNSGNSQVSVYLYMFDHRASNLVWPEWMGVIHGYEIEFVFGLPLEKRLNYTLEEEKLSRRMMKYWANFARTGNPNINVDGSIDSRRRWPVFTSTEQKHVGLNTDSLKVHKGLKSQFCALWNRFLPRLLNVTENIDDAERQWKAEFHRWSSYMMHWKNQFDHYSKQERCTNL
Sequence of Acetylcholinesterase (Electrophorus electricus) (O42275 24-633 limits assumed): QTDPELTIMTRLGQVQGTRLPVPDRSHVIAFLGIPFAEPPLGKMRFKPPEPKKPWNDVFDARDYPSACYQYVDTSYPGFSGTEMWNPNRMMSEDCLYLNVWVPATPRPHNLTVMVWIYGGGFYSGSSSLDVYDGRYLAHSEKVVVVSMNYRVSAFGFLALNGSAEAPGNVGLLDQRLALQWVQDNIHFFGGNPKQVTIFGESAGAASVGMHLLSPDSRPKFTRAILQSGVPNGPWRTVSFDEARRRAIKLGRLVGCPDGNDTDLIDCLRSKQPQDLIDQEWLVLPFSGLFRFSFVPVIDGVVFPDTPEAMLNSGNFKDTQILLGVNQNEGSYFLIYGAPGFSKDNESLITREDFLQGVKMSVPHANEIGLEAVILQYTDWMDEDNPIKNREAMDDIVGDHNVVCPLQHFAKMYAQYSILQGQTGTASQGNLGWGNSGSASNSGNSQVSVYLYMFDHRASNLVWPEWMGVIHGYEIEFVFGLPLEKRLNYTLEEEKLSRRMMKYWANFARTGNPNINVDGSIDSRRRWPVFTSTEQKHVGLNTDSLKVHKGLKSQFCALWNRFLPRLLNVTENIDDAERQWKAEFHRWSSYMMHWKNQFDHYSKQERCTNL

For the compound `O=c1cc(-c2ccc(O)c(O)c2)c2cc(O)cc(O)c2o1`, the IC50 against Cholinesterase is 208 µM; at Acetylcholinesterase it was 7 µM; in data set [2], 22.2 µM. For the same compound, in data set [1], the Activity is 10.5 mmol/g.
Take `COc1ccc(-c2cc(=O)oc3cc(O)cc(O)c23)cc1OC`: the IC50 against Cholinesterase was above 300 µM; at Acetylcholinesterase, 7.92 µM; in data set [2], 104 µM. The Activity in data set [1] is 1.37 mmol/g.
`COc1cc(C2CC(=O)Oc3cc(O)cc(O)c32)ccc1O` (stereo not drawn): the IC50 against Cholinesterase was above 300 µM; at Acetylcholinesterase it was above 50 µM; in data set [2] it was 55.9 µM. Also, the Activity in data set [1] stood at 9.01 mmol/g.
With `COc1ccc(C2CC(=O)Oc3ccc(O)cc32)cc1OC` (stereo not drawn), the IC50 is above 300 µM on Cholinesterase, above 50 µM at Acetylcholinesterase and above 300 µM in data set [2]. In data set [1], the Activity is 0.922 mmol/g.
For the compound `O=C1CC(c2ccc(O)c(O)c2)c2ccc(O)c(O)c2O1` (stereo not drawn), the half-inhibitory concentration (IC50) at Cholinesterase was 72.5 µM; against Acetylcholinesterase it was 0.283 µM; in data set [2], 0.43 µM. Also, in data set [1], the Activity was 9.6 mmol/g.
For `COc1ccc(C2CC(=O)Oc3cc(O)cc(O)c32)cc1OC` (stereo not drawn) the same measures were above 300 µM, above 50 µM, 141 µM and 1.5 mmol/g.
Consider `COc1cc(C2CC(=O)Oc3c2ccc(O)c3O)ccc1O` (stereo not drawn), for which the values for the IC50 (against Cholinesterase; on Acetylcholinesterase; in data set [2]) were 134 µM, 10.9 µM and 0.257 µM, respectively. Also, in data set [3], the “inhibition (INH)” value was “Active”. In data set [1], the Activity was 10.1 mmol/g.
Turning to `COc1ccc(C2CC(=O)Oc3c(O)cc(O)cc32)cc1` (stereo not drawn), the IC50 was above 300 µM at Cholinesterase, above 50 µM at Acetylcholinesterase and 75.4 µM in data set [2]. In addition, the Activity in data set [1] stood at 2.85 mmol/g.
With `COc1ccc(C2CC(=O)Oc3c(O)cc(O)cc32)cc1OC` (stereo not drawn), the results for the IC50 (against Cholinesterase; on Acetylcholinesterase; in data set [2]) were above 300 µM, above 50 µM and 26.6 µM, respectively. Besides, the Activity in data set [1] came out at 4.76 mmol/g.
The corresponding values for `O=c1cc(-c2ccc(O)cc2)c2ccc(O)c(O)c2o1` are above 300 µM, 9.45 µM, 293 µM and 9.89 mmol/g.
The corresponding values for `COc1ccc(C2CC(=O)Oc3cc(O)ccc32)cc1` (stereo not drawn) are above 300 µM, above 50 µM, above 300 µM and 0.896 mmol/g.
With `COc1ccc(C2CC(=O)Oc3c2ccc(O)c3O)cc1` (stereo not drawn), the IC50 was 149 µM on Cholinesterase, 21.6 µM at Acetylcholinesterase and 2.18 µM in data set [2]. The Activity in data set [1] came out at 9.17 mmol/g.
With `COc1cc(C2CC(=O)Oc3cc(O)ccc32)ccc1O` (stereo not drawn), the figures for the IC50 (against Cholinesterase; against Acetylcholinesterase; in data set [2]) were above 300 µM, above 50 µM and 82.5 µM, respectively. In addition, the Activity in data set [1] amounted to 9.38 mmol/g.
Consider `O=C1O[C@H]([C@@H](O)CO)C(O)=C1O`, for which, in data set [1], the Activity worked out at 9.87 mmol/g.
Turning to `COc1cc(-c2cc(=O)oc3c(O)c(O)ccc23)cc(OC)c1OC`, the IC50 is above 300 µM against Cholinesterase, 0.299 µM against Acetylcholinesterase and above 300 µM in data set [2]. In data set [1], the Activity came to 9.65 mmol/g.
For `O=C1CC(c2ccc(O)cc2)c2c(O)cc(O)cc2O1` (stereo not drawn), the IC50 against Cholinesterase was above 300 µM; against Acetylcholinesterase it was above 50 µM; in data set [2] it was 19.4 µM. Further, in data set [1], the Activity was determined as 2.26 mmol/g.
Take `O=c1cc(-c2ccc(O)c(O)c2)c2ccc(O)c(O)c2o1`: the IC50 against Cholinesterase came out at 188 µM; against Acetylcholinesterase, 7.05 µM; in data set [2], 189 µM. Moreover, the Activity in data set [1] came out at 10.5 mmol/g.
Regarding `COc1ccc(-c2cc(=O)oc3c(O)c(O)ccc23)cc1OC`, the values for the IC50 (on Cholinesterase; on Acetylcholinesterase; in data set [2]) were above 300 µM, 0.052 µM and above 300 µM, respectively. Moreover, the Activity in data set [1] is 9.89 mmol/g.
Take `O=c1cc(-c2ccc(O)c(O)c2)c2ccc(O)cc2o1`: the IC50 was above 300 µM against Cholinesterase, 8.86 µM on Acetylcholinesterase and above 300 µM in data set [2]. In addition, in data set [1], the Activity was 9.71 mmol/g.
Take `O=c1cc(-c2cc(O)c(O)c(O)c2)c2ccc(O)c(O)c2o1`: the values for the IC50 (against Cholinesterase; against Acetylcholinesterase; in data set [2]) were 106 µM, 0.025 µM and 1.99 µM, respectively. In addition, the Activity in data set [1] is 10.1 mmol/g. Also, the inhibition result in data set [4] was “Active”.
As for `COc1ccc(C2CC(=O)Oc3cc(O)cc(O)c32)cc1` (stereo not drawn), the IC50 is above 300 µM on Cholinesterase, above 50 µM against Acetylcholinesterase and 83.7 µM in data set [2]. Further, the Activity in data set [1] worked out at 1.06 mmol/g.
